From patent publication US11230526B1, “Cylcoalkenyl derivatives useful as agonists of the GPR120 and/or GPR40 receptors” (Janssen Pharmaceutica NV, priority 2018, dated 2022)

How the values were obtained:
Format in all cases: cell-based
[1] = target: T1, long form of human GPR120 (Homo sapiens, UniProt Q5NUL3); assay: Human GPR120 DiscoveRx PathHunter Beta-Arrestin assay, Procedure β-arrestin A
T1 construct: host or cells: PathHunter CHO-K1 GPR120 β-Arrestin Cell Line
Excerpt: Human GPR120 DiscoveRx PathHunter® Beta-Arrestin Assay Assay Principle:
The binding of an agonist (medium/long chain fatty acids or small molecule agonists) to the G-protein-coupled receptor GPR120 activates phospholipase C, leading to release of intracellular Ca^+2 through the generation of inositol 1,4,5-trisphosphate (InsP3 or IP3). GPR120 activation can also trigger intracellular signaling via recruitment of Beta-Arrestin. In the present method, agonist-induced activation of the human GPR120 receptor is monitored through the use of PathHunter® CHO-K1 GPR120 Beta-Arrestin Cell Line engineered by DiscoveRx, as detailed below. The cell lines are designed to co-express both the ProLink/Enzyme Donor (PK)-tagged GPCR and the Enzyme […] (EA)-tagged Beta-Arrestin fusion proteins. Upon GPR120 receptor stimulation/activation, the EA-tagged Beta-Arrestin portion is translocated to the tagged receptor, where the two enzyme fragments are brought within close proximity. Under these conditions, these fragments can interact and form an active Beta-gal enzyme complex through Enzyme Fragment Complementation (EFC). This active Beta-gal complex can enzymatically hydrolyse the substrate to produce a detectable light signal; therefore, activation as a function of agonist concentration can be expressed as an EC50 value to determine relative compound activities. This in vitro assay therefore serves to assess compound agonist activity of the GPR120.
In Procedure β-arrestin A, the cell used were PathHunter® CHO-K1 GPR120 β-Arrestin Cell Line, expressing the long form of human GPR120 (Genbank accession number NM_181745), with 3000 cells per well.
The selected CHO-K1 GPR120 β-Arrestin cells were cultured in Ham's F12 media supplemented with 10% fetal bovine serum (FBS), 1% Glutamine, 1×p/s, 800 μg/mL G418 and 300 μg/mL Hygromycin B (for selection). Cell stocks were maintained and grown in a sub-confluent state using standard cell culture procedures. The day before the experiment, the cells were harvested with non-enzymatic cell dissociation buffer and re-suspended in complete growth media at the desired concentration. A Corning 384-plate was then seeded with the proper number of cells in a volume of 25 μL, per well. The seeded plates were incubated overnight at 37° C.
On the day of the experiment, the Assay Buffer containing (a) HBSS with Ca^++ and Mg^++, (b) 20 mM HEPES, and (c) 0.1% BSA stabilizer (pH 7.4) was prepared. The growth medium was gently removed from the cell plates and 20 μL of Assay Buffer added to each well. The plate was then incubated at 37° C. for 60 min. Test compounds were serially diluted in Assay Buffer to desired concentrations (more particularly to one or more of the following μM concentrations: 25, 12.5, 6.25, 3.12, 1.56, 0.78, 0.39, 0.19, 0.10, 0.05, 0.02, 0.01). Five μL of compound dilution was then added to each well and the plate incubated at 37° C. for 90 min. The detection reagents were prepared according to the manufacture's instruction. Twelve μL of the detection reagents were added to each well and the plate incubated at room temperature for 60 min.
The plates were read on an EnVision instrument, using Protocol name: Luminescence, Plate type: 384 Costar, Measurement height: 3 mm, Measurement time: 1 s, Aperture: 384 Plate aperture. The % Activity relative to the positive control was calculated using the following equation:
The % Activity values were plotted versus the concentration of test compound and fitted to a sigmoidal dose-response curve with a Hill slope=1 (fixed value) using nonlinear regression with GraphPad Prism 5.0 to calculate the EC50 values. The Fitting Equation was: Y=Bottom+(Top-Bottom)/(1+10^((Log EC50−X)*HillSlope)), where X is the log of the concentration and Y is the response.

[2] = target: T2, Human GPR120 short form (Homo sapiens, UniProt Q5NUL3); assay: Human GPR120 calcium flux assay, Procedure Calcium B (4200 cells/well)
T2 construct: expressed in transfected cells
T2 sequence (Q5NUL3 1-361): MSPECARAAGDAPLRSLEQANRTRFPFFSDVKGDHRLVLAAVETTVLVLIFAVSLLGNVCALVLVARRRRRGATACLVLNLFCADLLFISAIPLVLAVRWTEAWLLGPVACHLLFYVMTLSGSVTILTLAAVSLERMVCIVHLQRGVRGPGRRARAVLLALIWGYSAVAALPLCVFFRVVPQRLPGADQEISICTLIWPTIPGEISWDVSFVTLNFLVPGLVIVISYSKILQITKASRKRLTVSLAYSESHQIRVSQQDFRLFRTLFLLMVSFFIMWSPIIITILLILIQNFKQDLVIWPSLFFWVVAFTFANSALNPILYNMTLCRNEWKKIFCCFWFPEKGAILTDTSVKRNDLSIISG
Method in brief: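 Agonist EC50 came from a four-parameter fit of RFU (Fmax−Fmin) read over 300 s on FLIPR. Cells were HEK293 stably transfected with human GPR120 (NM_001195755.1) at 4200 per well, serum-starved 1 h and loaded with Fluo-4 NW dye with probenecid before ligand addition.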

[3] = target: T3, human GPR40 (Homo sapiens, UniProt O14842); assay: GPR40 calcium flux assay, human GPR40; settings: HEK293 cells stably expressing GPR40; table does not say human or rat
T3 construct: expressed in transfected cells
Method in brief: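 Cells preincubated 1 h at 37° C. in HBSS, 20 mM HEPES, 0.1% BSA, then Fluo 8 calcium dye 30 min at 37° C. and 15 min at room temperature.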

T1 sequence (Q5NUL3 1-377 isoform Q5NUL3-1): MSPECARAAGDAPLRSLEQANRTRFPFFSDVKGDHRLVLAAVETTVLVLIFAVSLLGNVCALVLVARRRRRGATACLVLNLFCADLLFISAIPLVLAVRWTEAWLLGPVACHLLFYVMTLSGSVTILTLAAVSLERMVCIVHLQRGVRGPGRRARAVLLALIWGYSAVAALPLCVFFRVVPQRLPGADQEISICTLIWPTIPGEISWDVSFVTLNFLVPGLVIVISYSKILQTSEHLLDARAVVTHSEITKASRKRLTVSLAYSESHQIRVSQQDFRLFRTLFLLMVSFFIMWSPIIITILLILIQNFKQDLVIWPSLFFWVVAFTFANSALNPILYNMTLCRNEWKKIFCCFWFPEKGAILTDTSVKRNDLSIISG
T1 sequence (P32121 whole entry partner): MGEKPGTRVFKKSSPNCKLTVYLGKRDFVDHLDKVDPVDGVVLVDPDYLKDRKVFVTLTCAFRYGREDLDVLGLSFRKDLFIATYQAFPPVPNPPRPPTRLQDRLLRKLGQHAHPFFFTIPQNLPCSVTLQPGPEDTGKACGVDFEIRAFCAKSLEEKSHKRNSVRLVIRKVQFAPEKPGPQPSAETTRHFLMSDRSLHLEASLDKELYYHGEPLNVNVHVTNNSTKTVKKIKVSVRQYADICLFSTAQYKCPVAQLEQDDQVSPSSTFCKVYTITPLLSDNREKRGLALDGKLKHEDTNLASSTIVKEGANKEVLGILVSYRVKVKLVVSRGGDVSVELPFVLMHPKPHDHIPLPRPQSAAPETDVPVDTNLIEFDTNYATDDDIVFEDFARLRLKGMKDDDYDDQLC
T3 sequence (O14842 whole entry): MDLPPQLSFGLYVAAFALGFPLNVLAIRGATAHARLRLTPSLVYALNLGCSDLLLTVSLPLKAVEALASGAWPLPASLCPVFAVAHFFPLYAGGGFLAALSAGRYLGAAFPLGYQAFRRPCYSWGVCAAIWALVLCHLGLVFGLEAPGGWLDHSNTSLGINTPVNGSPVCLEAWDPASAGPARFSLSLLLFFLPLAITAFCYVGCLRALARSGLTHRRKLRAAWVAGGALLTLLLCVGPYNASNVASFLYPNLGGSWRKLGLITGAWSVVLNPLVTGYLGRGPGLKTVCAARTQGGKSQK

Structure (SMILES)	EC50 [1] [nM]	EC50 [2] [nM]	EC50 [3] [nM]
Cc1c(CCC(=O)O)ccc(OCC2=C(c3ccc(F)cc3)CC(F)(F)C2)c1C [Compound 10]	155	24	> 5000
Cc1c(CCC(=O)O)ccc(OCC2=C(c3ccc(F)cc3)CC(F)C2)c1C (stereo not drawn) [Compound 100]	168	81	> 5000
CCOc1ccc(C2=C(COc3c(F)cc(CCC(=O)O)cc3F)CCC2)cn1 [Compound 226, 3-[4-[[2-(6-ethoxy-3-pyridyl)cyclopenten-1-yl]methoxy]-3,5-difluoro-phenyl]Propanoic Acid]	1290	724	> 5000
N#CC1CC(COc2c(F)cc(CCC(=O)O)cc2F)=C(c2ccc(Cl)cc2)C1 (stereo not drawn) [Compound 185, 3-[4-[[2-(4-chlorophenyl)-4-cyano-cyclopenten-1-yl]methoxy]-3,5-difluoro-phenyl]Propanoic Acid]	1440	360	3440
Cc1ncc(C2=C(COc3ccc(CCC(=O)O)cc3C)CC(F)(F)CC2)s1 [Compound 550, 3-[4-[[5,5-difluoro-2-(2-methylthiazol-5-yl)cyclohexen-1-yl]methoxy]-3-methyl-phenyl]Propanoic Acid]	437	482	642
O=C(O)CCc1ccc(OCC2=C(c3ccc(F)cc3)CCC(F)(F)C2)cc1C(F)(F)F [Compound 489, 3-[4-[[5,5-difluoro-2-(4-fluorophenyl)cyclohexen-1-yl]methoxy]-2-(trifluoromethyl)phenyl]Propanoic Acid]	312	173	825
Cc1cc(CCC(=O)O)ccc1OCC1=C(c2ccc(Cl)s2)CCC(F)(F)C1 [Compound 542, 3-[4-[[2-(5-chloro-2-thienyl)-5,5-difluoro-cyclohexen-1-yl]methoxy]-3-methyl-phenyl]Propanoic Acid]	182	94	2860
Cc1ccc(C2=C(COc3c(F)cc(CCC(=O)O)cc3F)CC(F)(F)CC2)cc1F [Compound 525, 3-[4-[[5,5-difluoro-2-(3-fluoro-4-methyl-phenyl)cyclohexen-1-yl]methoxy]-3,5-difluoro-phenyl]Propanoic Acid]	121	165	4030
Cc1cc(CCC(=O)O)ccc1OCC1=C(c2cncs2)CCC(F)(F)C1 [Compound 548, 3-[4-[(5,5-difluoro-2-thiazol-5-yl-cyclohexen-1-yl)methoxy]-3-methyl-phenyl]Propanoic Acid]	1340	500	3490

The remaining lines, values ahead:

EC50 [1] [nM]	EC50 [2] [nM]	EC50 [3] [nM]	Structure (SMILES)
157	96	> 5000	Cc1c(CCC(=O)O)ccc(OCC2=C(c3ccc(F)cc3F)CCC(F)(F)C2)c1C [Compound 534, 3-[4-[[2-(2,4-difluorophenyl)-5,5-difluoro-cyclohexen-1-yl]methoxy]-2,3-dimethyl-phenyl]Propanoic Acid]
175	118	4100	Cc1cc(CCC(=O)O)ccc1OCC1=C(c2cccs2)CCC(F)(F)C1 [Compound 560, 3-[4-[[5,5-difluoro-2-(2-thienyl)cyclohexen-1-yl]methoxy]-3-methyl-phenyl]Propanoic Acid]
231	285	> 5000	COc1ncc(C2=C(COc3c(F)cc(CCC(=O)O)cc3F)CCC2)cc1F [Compound 224, 3-[3,5-difluoro-4-[[2-(5-fluoro-6-methoxy-3-pyridyl)cyclopenten-1-yl]methoxy]phenyl]Propanoic Acid]
588	530	> 5000	CCOc1ccc(C2=C(COc3ccc(CCC(=O)O)cc3C)CCC2)cn1 [Compound 225, 3-[4-[[2-(6-ethoxy-3-pyridyl)cyclopenten-1-yl]methoxy]-3-methyl-phenyl]Propanoic Acid]
169	75	> 5000	O=C(O)CCc1cc(F)c(OCC2=C(c3ccc(F)cc3F)CC(F)(F)C2)c(F)c1 [Compound 216, 3-[4-[[2-(2,4-difluorophenyl)-4,4-difluoro-cyclopenten-1-yl]methoxy]-3,5-difluoro-phenyl]Propanoic Acid]
853	714	> 5000	CCC1CCC(COc2ccc(CCC(=O)O)c(C)c2C)=C(c2ccc(Cl)cc2)C1 (stereo not drawn) [Compound 522, 3-[4-[[2-(4-chlorophenyl)-4-ethyl-cyclohexen-1-yl]methoxy]-2,3-dimethyl-phenyl]Propanoic Acid]
245	119	> 5000	Cc1ccc(C2=C(COc3c(F)cc(CCC(=O)O)cc3F)CC(F)(F)CC2)s1 [Compound 562, 3-[4-[[5,5-difluoro-2-(5-methyl-2-thienyl)cyclohexen-1-yl]methoxy]-3,5-difluoro-phenyl]Propanoic Acid]
519	299	> 5000	O=C(O)CCc1cc(F)c(OCC2=C(c3ccco3)CCC(F)(F)C2)c(F)c1 [Compound 569, 3-[4-[[5,5-difluoro-2-(2-furyl)cyclohexen-1-yl]methoxy]-3,5-difluoro-phenyl]Propanoic Acid]
512	461	> 5000	Cc1cc(CCC(=O)O)cc(Br)c1OCC1=C(c2ccc(Cl)cc2)CCC1 [Compound 30, 3-[3-bromo-4-[[2-(4-chlorophenyl)cyclopenten-1-yl]methoxy]-5-methyl-phenyl]Propanoic Acid]
155	364	> 5000	Cc1c(CCC(=O)O)ccc(OCC2=C(c3ccc(Cl)cc3)CCC(C(C)C)C2)c1C (stereo not drawn) [Compound 501, 3-[4-[[2-(4-chlorophenyl)-5-isopropyl-cyclohexen-1-yl]methoxy]-2,3-dimethyl-phenyl]Propanoic Acid]
167	73	> 5000	Cc1cc(OCC2=C(c3ccc(Cl)cc3)CCC2)c(Br)cc1CCC(=O)O [Compound 67]
639	255	3750	Cc1cc(OCC2=C(c3ccc(F)cc3)CCC(F)(F)C2)ccc1CCC(=O)O [Compound 518, 3-[4-[[5,5-difluoro-2-(4-fluorophenyl)cyclohexen-1-yl]methoxy]-2-methyl-phenyl]Propanoic Acid]
132	57	> 5000	COc1ncc(C2=C(COc3ccc(CCC(=O)O)cc3C)CCC2)cc1F [Compound 222, 3-[4-[[2-(5-fluoro-6-methoxy-3-pyridyl)cyclopenten-1-yl]methoxy]-3-methyl-phenyl]Propanoic Acid]
